In DBAASP:
Converted amounts (≈) assume the structure as drawn.

Experiments:
Assay in all cases: ≥ marks a high value that may be exact or a test limit, other limits are often not marked, values filed in µg/mL are converted to µM
[1] = test system: Candida albicans ATCC 2002
[2] = test system: Escherichia coli ATCC 25922
[3] = test system: Staphylococcus aureus ATCC 2592
[4] = test system: Micrococcus luteus ATCC 4698
[5] = test system: Candida albicans NCPF 1467
[6] = test system: Escherichia coli NCTC 10418
[7] = test system: Staphylococcus aureus NCTC 10788
[8] = test system: Bacillus subtilis
[9] = test system: Escherichia coli DH5alpha
[10] = test system: Staphylococcus aureus ATCC 6538
[11] = test system: Staphylococcus epidermidis ATCC 12228
[12] = test system: Clavibacter michiganensis subsp. michiganensis DSM 46294
[13] = test system: Pectobacterium carotovorum subsp. carotovorum DSM 30168
[14] = test system: Pseudomonas corrugata DSM 7228
[15] = test system: Pseudomonas syringae pv. syringae DSM 10604
[16] = test system: Pseudomonas syringae pv. tomato DC3000
[17] = test system: Xanthomonas vesicatoria DSM 50861
[18] = test system: Pseudomonas aeruginosa ATCC 9027
[19] = test system: Escherichia coli JW0013
[20] = test system: Escherichia coli
[21] = test system: Listeria innocua
[22] = test system: Micrococcus luteus A270

Work on `CC[C@H](C)[C@H](NC(=O)CNC(=O)[C@H](Cc1c[nH]c2ccccc12)NC(=O)[C@H](C)NC(=O)[C@H](CCCCN)NC(=O)[C@H](C)N)C(=O)NCC(=O)NCC(=O)N[C@@H](Cc1cnc[nH]1)C(=O)N[C@H](C(=O)N[C@H](C(=O)NCC(=O)N[C@@H](CCC(N)=O)C(=O)N[C@H](C(=O)N[C@H](C(=O)NCC(=O)N[C@H](C(=O)N[C@@H](CCCN=C(N)N)C(=O)N[C@H](C(=O)N[C@@H](CCCN=C(N)N)C(=O)NCC(=O)N[C@@H](CC(C)C)C(=O)N[C@@H](CS)C(=O)NCC(=O)N[C@@H](CC(N)=O)C(=O)N[C@H](C(=O)O)C(C)C)[C@@H](C)CC)C(C)C)C(C)C)[C@@H](C)CC)[C@@H](C)CC)C(C)C` [AKAWGIGGHVIGQIVGVRIRGLCGNV] yielded an MIC [1] of 19 µM (≈ 50 µg/mL), an MIC [2] of 9.5 µM (≈ 25 µg/mL) and an MIC [3] of 4.79 µM (≈ 12.6 µg/mL).

Work on `NCCCC[C@@H]1NC(=O)[C@H](Cc2c[nH]c3ccccc23)NC(=O)CNC(=O)CNC(=O)[C@@H](N)CSSC[C@@H](C(=O)O)NC(=O)[C@H](CCCN=C(N)N)NC(=O)[C@H](CCCCN)NC(=O)[C@H](CCCN=C(N)N)NC1=O` [CGGWKRKRC] yielded an MIC [4] of 0.8 µM (≈ 0.873 µg/mL).

In the case of `CC[C@H](C)[C@H](NC(=O)CNC(=O)[C@@H](NC(=O)[C@H](C)NC(=O)[C@@H](NC(=O)[C@H](Cc1cnc[nH]1)NC(=O)[C@@H]1CCCN1C(=O)[C@@H](NC(=O)[C@H](CCSC)NC(=O)[C@H](CO)NC(=O)[C@H](Cc1ccccc1)NC(=O)[C@@H](N)Cc1ccccc1)[C@@H](C)CC)[C@@H](C)CC)[C@@H](C)O)C(=O)N[C@@H](C)C(=O)N[C@@H](CO)C(=O)N[C@@H](CC(C)C)C(=O)N[C@H](C(=O)N[C@@H](CCCCN)C(=O)N[C@@H](CC(N)=O)C(=O)N[C@@H](CC(C)C)C(N)=O)C(C)C` [FFSMIPHIATGIASLVKNL], the MIC [5] is reported as 31.1 µM (≈ 64 µg/mL), the MIC [6] is reported as at least 249 µM and the MIC [7] is reported as 15.5 µM (≈ 32 µg/mL).

`CC[C@H](C)[C@H](NC(=O)[C@H](C)NC(=O)[C@H](CS)NC(=O)[C@@H](NC(=O)[C@@H](NC(=O)[C@@H](NC(=O)CNC(=O)[C@@H](NC(=O)[C@@H](NC(=O)[C@@H](NC(=O)[C@H](C)NC(=O)[C@H](Cc1ccccc1)NC(=O)[C@H](CC(C)C)NC(=O)[C@H](CCCN=C(N)N)NC(=O)[C@H](CCCN=C(N)N)NC(=O)[C@H](CC(C)C)NC(=O)CNC(=O)CNC(=O)[C@@H](NC(=O)[C@@H](N)Cc1ccccc1)[C@@H](C)CC)[C@@H](C)O)C(C)C)C(C)C)[C@@H](C)O)C(C)C)C(C)C)C(=O)N[C@@H](CC(N)=O)C(=O)N[C@@H](CCCCN)C(=O)N[C@@H](CC(C)C)C(=O)NCC(=O)NCC(=O)NCC(=O)O` [FIGGLRRLFATVVGTVVCAINKLGGG] gave an MIC [8] of at least 38.2 µM, an MIC [1] of 4.77 µM (≈ 12.5 µg/mL) and an MIC [2] of 4.77 µM (≈ 12.5 µg/mL). It also gave an MIC [3] of 4.77 µM (≈ 12.5 µg/mL).

Work on `CC[C@H](C)[C@H](NC(=O)[C@H](C)NC(=O)[C@H](CO)NC(=O)[C@@H](NC(=O)[C@H](CC(C)C)NC(=O)CNC(=O)[C@H](C)NC(=O)[C@@H](NC(=O)[C@@H](NC(=O)[C@H](CO)NC(=O)[C@@H]1CCCN1C(=O)[C@@H](NC(=O)[C@H](CC(C)C)NC(=O)[C@H](CO)NC(=O)[C@H](Cc1ccccc1)NC(=O)[C@H](CC(C)C)NC(=O)[C@@H](N)Cc1ccccc1)[C@@H](C)CC)C(C)C)[C@@H](C)CC)C(C)C)C(=O)N[C@@H](CCCN=C(N)N)C(=O)N[C@@H](CC(N)=O)C(N)=O` [FLFSLIPSVIAGLVSAIRN] yielded an MIC [5] of 15.9 µM (≈ 32 µg/mL), an MIC [6] of at least 254 µM and an MIC [7] of 7.93 µM (≈ 16 µg/mL).

For `CC(C)C[C@H](NC(=O)[C@H](CC(C)C)NC(=O)[C@H](CCCCN)NC(=O)[C@H](CO)NC(=O)[C@@H](NC(=O)[C@H](C)NC(=O)[C@H](CCCCN)NC(=O)[C@H](Cc1ccccc1)NC(=O)[C@H](CC(C)C)NC(=O)[C@H](C)NC(=O)CNC(=O)[C@H](CC(C)C)NC(=O)[C@@H](N)Cc1ccccc1)C(C)C)C(=O)O` [FLGALFKAVSKLL], the MIC [9] was 25.6 µM (≈ 36 µg/mL), the MIC [4] was 4.98 µM (≈ 7 µg/mL) and the MIC [10] was 8.53 µM (≈ 12 µg/mL). The MIC [11] was 15.6 µM (≈ 22 µg/mL).

In the case of `CC[C@H](C)[C@H](NC(=O)CNC(=O)CNC(=O)[C@H](C)NC(=O)[C@@H](NC(=O)[C@H](Cc1cnc[nH]1)NC(=O)[C@@H]1CCCN1C(=O)[C@@H](NC(=O)[C@H](CCSC)NC(=O)[C@H](CO)NC(=O)[C@H](CC(C)C)NC(=O)[C@@H](N)Cc1ccccc1)[C@@H](C)CC)[C@@H](C)CC)C(=O)N[C@@H](C)C(=O)N[C@@H](CO)C(=O)N[C@@H](CC(C)C)C(=O)N[C@H](C(=O)N[C@@H](CCCCN)C(=O)N[C@@H](CC(N)=O)C(=O)N[C@@H](CC(C)C)C(N)=O)C(C)C` [FLSMIPHIAGGIASLVKNL], the MIC [5] is reported as at least 32.3 µM, the MIC [6] is reported as at least 258 µM and the MIC [7] is reported as 16.2 µM (≈ 32 µg/mL).

In the case of `CSCC[C@H](NC(=O)CN)C(=O)N[C@@H](CCCN=C(N)N)C(=O)N1CCC[C@H]1C(=O)N1CCC[C@H]1C(=O)N[C@@H](Cc1c[nH]c2ccccc12)C(=O)N[C@@H](Cc1ccccc1)C(N)=O` [GMRPPWF], the MIC [5] is reported as at least 144 µM, the MIC [6] is reported as at least 575 µM and the MIC [7] is reported as at least 288 µM.

`CC(C)C[C@H](NC(=O)[C@H](C)NC(=O)[C@H](CC(C)C)NC(=O)[C@H](CCCN=C(N)N)NC(=O)[C@H](CCCN=C(N)N)NC(=O)[C@@H](N)CCCCN)C(=O)N[C@@H](Cc1ccccc1)C(=O)N[C@@H](CCCN=C(N)N)C(=O)N[C@@H](CC(C)C)C(=O)N[C@@H](Cc1ccccc1)C(=O)N[C@@H](CCCN=C(N)N)C(=O)N[C@@H](CC(C)C)C(=O)N[C@@H](C)C(=O)N[C@@H](CC(C)C)C(=O)N[C@@H](CCCCN)C(=O)N[C@@H](CC(C)C)C(=O)N[C@H](C(=O)N[C@@H](CC(C)C)C(=O)N[C@@H](CCCCN)C(=O)N[C@@H](CCCCN)C(N)=O)C(C)C` [KRRLALFRLFRLALKLVLKK] was tested, and the MIC [12] was 1.01 µM (≈ 2.5 µg/mL), the MIC [13] was 4.03 µM (≈ 10 µg/mL) and the MIC [14] was 4.03 µM (≈ 10 µg/mL). For the same molecule, the MIC [15] was 4.03 µM (≈ 10 µg/mL), the MIC [16] was 1.01 µM (≈ 2.5 µg/mL) and the MIC [17] was 1.01 µM (≈ 2.5 µg/mL).

`CC(C)C[C@H](NC(=O)CNC(=O)[C@H](Cc1ccccc1)NC(=O)[C@H](CC(C)C)NC(=O)[C@H](CCCN=C(N)N)NC(=O)[C@H](CC(C)C)NC(=O)[C@H](Cc1c[nH]c2ccccc12)NC(=O)CNC(=O)CNC(=O)[C@H](CO)NC(=O)[C@H](CCCCN)NC(=O)[C@H](CC(C)C)NC(=O)[C@H](C)NC(=O)[C@@H](N)CC(C)C)C(=O)N[C@@H](CCCCN)C(=O)N[C@@H](CC(=O)O)C(=O)N[C@@H](CCCCN)C(=O)N[C@@H](CCCCN)C(=O)N[C@@H](Cc1cnc[nH]1)C(N)=O` [LALKSGGWLRLFGLKDKKH] showed an MIC [1] of at least 35 µM, an MIC [2] of 35 µM (≈ 75.8 µg/mL) and an MIC [18] of 9 µM (≈ 19.5 µg/mL). It also gave an MIC [3] of 17 µM (≈ 36.8 µg/mL).

Work on `CC[C@H](C)[C@H](NC(=O)[C@H](CCCN=C(N)N)NC(=O)[C@H](CCCN=C(N)N)NC(=O)[C@@H]1CCCN1C(=O)[C@@H]1CCCN1C(=O)[C@H](CCCN=C(N)N)NC(=O)[C@@H]1CCCN1C(=O)[C@H](CCCN=C(N)N)NC(=O)[C@@H]1CCCN1C(=O)[C@H](CC(C)C)NC(=O)[C@H](Cc1ccc(O)cc1)NC(=O)[C@H](CC(=O)O)NC(=O)[C@@H]1CCCN1C(=O)[C@H](CCCCN)NC(=O)[C@H](CC(=O)O)NC(=O)[C@@H](N)C(C)C)C(=O)N[C@@H](Cc1ccc(O)cc1)C(=O)N[C@@H](CC(N)=O)C(=O)N[C@@H](CCCN=C(N)N)C(N)=O` [VDKPDYLPRPRPPRRIYNR] yielded an MIC [19] of 1.37 µM (≈ 3.3 µg/mL).

With `CC[C@H](C)[C@H](NC(=O)[C@H](CCCN=C(N)N)NC(=O)[C@H](CCCN=C(N)N)NC(=O)[C@@H]1CCCN1C(=O)[C@@H]1CCCN1C(=O)[C@H](CCCN=C(N)N)NC(=O)[C@@H]1CCCN1C(=O)[C@H](CCCN=C(N)N)NC(=O)[C@@H]1CCCN1C(=O)[C@H](CC(C)C)NC(=O)[C@H](Cc1ccc(O)cc1)NC(=O)[C@H](CCCCN)NC(=O)[C@@H]1CCCN1C(=O)[C@H](CCCCN)NC(=O)[C@H](CC(=O)O)NC(=O)[C@@H](N)C(C)C)C(=O)N[C@@H](Cc1ccc(O)cc1)C(=O)N[C@@H](CC(N)=O)C(=O)N[C@@H](CCCN=C(N)N)C(N)=O` [VDKPKYLPRPRPPRRIYNR] the MIC [19] was 1.36 µM (≈ 3.3 µg/mL).

`CC(C)C[C@H](NC(=O)[C@H](CC(C)C)NC(=O)[C@H](CO)NC(=O)[C@H](Cc1cnc[nH]1)NC(=O)[C@H](CO)NC(=O)[C@H](CC(C)C)NC(=O)[C@H](CC(C)C)NC(=O)[C@H](CCCCN)NC(=O)[C@H](Cc1ccccc1)NC(=O)[C@H](CC(N)=O)NC(=O)[C@@H](N)C(C)C)C(=O)O` [VNFKLLSHSLL] was tested, and the MIC [20] was 98 µM (≈ 125 µg/mL), the MIC [21] was 24 µM (≈ 30.5 µg/mL) and the MIC [22] was 24 µM (≈ 30.5 µg/mL).
